Data from patent US6734168B2, “Endothelial monocyte activating polypeptide II: a mediator which activates host response” (The Trustees of Columbia University in the City of New York, priority 1993, dated 2004).

What was measured:
human umbilical vein ECs = assay: EC tissue factor activity, Factor VIIa-dependent Factor Xa formation; format: cell-based
Method: Tissue factor activity of monolayers of ECs and MPs was determined (7) after incubation with EMAP II-derived peptides at 37° C. for 4-12 hrs by washing cultures with HEPES (10 MM; pH 7.4), NaCl (137 mM), KCl (4 mM), CaCl2 (3 mM), glucose (10 mM), bovine serum albumin (0.5 mg/ml), and addition of 0.5 ml of the same buffer along with purified human Factor VIIa (1 nM) and Factor X (200 nM) for 45 min at 37° C. Aliquots (0.05 ml) of the reaction mixture (one per well) were withdrawn at 15 min intervals, added to a buffer containing Tris (50 mM; pH 7.9), NaCl (175 mM), EDTA (5 mM) and bovine serum albumin (0.5 mg/ml; 0.05 ml), and the chromogenic substrate Spectrozyme Factor Xa (American Diagnositca, Inc., Greenwich Conn.; 0.01 ml; 2 mM). Cleavage of the substrate was monitored by the change in absorbance at 405 nm (BioKinetics Reader, Winooski, Vt.). Factor Xa concentration was determined by comparison with a standard curve generated with known amounts of purified human Factor Xa. Human, plasma-derived Factors VIIa and X were purified to homogeneity as described (31).
In Vitro Assays of EC, MP, and PMN Functions-Cell-associated tissue factor was assayed by its functional activity, using purified coagulation proteins, and tissue factor mRNA was detected by PCR. […] The concentration of Factor Xa was determined based on a standard curve generated with purified Factor Xa. […]

human PMNs = assay: [Ca2+]i measurement in PMNs (fura-2); format: cell-based
Method: [Ca^2+1]i measurements. PMNs or MPs (2×10^7 cells in each case) were incubated with fura-2 AM (1 μM) and pluronic detergent (0.02%) for 12 min at room temperature, diluted sixfold, and incubated for a further 30 min at room temperature to allow for complete hydrolysis of the dye. Cells were then resuspended in HEPES-buffered saline at 5×10^5 cells/ml (32). For experiments using MPs, sulfinpyrazone (0.5 mM) was included at all steps to minimize both dye sequestration into intracellular organelles and dye efflux (33). Fluorescence of fura-2 was monitored at 37° C. in a thermostatically-controlled cuvette installed in a Perkin Elmer Model 650-40 fluorescense spectrophotometer. Calibration of [Ca^2+]i was performed as described (34).
For determination of [Ca^2+] in PMSs and MPs, cells (2×10^7 in each case) were incubated with fura-2 AM (1 um) and pluronci detergent (0.02%) at room temperature, diluted 6-fold, and incubated for a further 30 min at room temperature to allow for complete hydrolysis of the dye. Cells were then resuspended in HEPES-buffered saline at 5×10^5 cells/ml (32). For MPs, sulfinpyrazone (0.5 mM) was included at all steps to minimize both dye sequestration into intracellular organelles and dye efflux (33). Fluorescence of fura-2 was monitored at 37° C. in a thermostatically controlled cuvette installed in a Perkin Elmer model 650-40 fluorescence spectrophotometer. Calibration of [Ca^2+] was performed as described (34).

ASRLDLRIGRIVTAKY [residues #6-20 from EMAP II, Cys to Arg substitution at position #15, and a C-terminal Tyr]
Induction of tissue factor activity in ECs (Factor VIIa-dependent Factor X activation) (human umbilical vein ECs): did not demonstrate induction of tissue factor activity
Rise in [Ca2+]i in PMNs (human PMNs): induced a rise in [Ca^2+]i
